The values that follow come from US12479847B2 (DANA-FARBER CANCER INSTITUTE, INC., priority 2019, dated 2025).

What all share (test): KINOMEscan (ScanMAX) kinase profiling
Common to all, as to format: binding

Test [1] deals with T1, panel of 468 kinases (Homo sapiens, UniProt P36507).
T1 construct: purchased KINOMEscan (ScanMAX) service
As to conditions: MEK2; 1 μM; read-out: % control.

Test [2] addresses T2, panel of 468 kinases (Homo sapiens, UniProt Q9UKE5).
T2 construct: purchased KINOMEscan (ScanMAX) service
As to conditions: TNIK; 1 μM; read-out: % control.

The target of test [3] is T3, panel of 468 kinases (Homo sapiens, UniProt P43403).
T3 construct: purchased KINOMEscan (ScanMAX) service
T3 sequence (P43403 1-619): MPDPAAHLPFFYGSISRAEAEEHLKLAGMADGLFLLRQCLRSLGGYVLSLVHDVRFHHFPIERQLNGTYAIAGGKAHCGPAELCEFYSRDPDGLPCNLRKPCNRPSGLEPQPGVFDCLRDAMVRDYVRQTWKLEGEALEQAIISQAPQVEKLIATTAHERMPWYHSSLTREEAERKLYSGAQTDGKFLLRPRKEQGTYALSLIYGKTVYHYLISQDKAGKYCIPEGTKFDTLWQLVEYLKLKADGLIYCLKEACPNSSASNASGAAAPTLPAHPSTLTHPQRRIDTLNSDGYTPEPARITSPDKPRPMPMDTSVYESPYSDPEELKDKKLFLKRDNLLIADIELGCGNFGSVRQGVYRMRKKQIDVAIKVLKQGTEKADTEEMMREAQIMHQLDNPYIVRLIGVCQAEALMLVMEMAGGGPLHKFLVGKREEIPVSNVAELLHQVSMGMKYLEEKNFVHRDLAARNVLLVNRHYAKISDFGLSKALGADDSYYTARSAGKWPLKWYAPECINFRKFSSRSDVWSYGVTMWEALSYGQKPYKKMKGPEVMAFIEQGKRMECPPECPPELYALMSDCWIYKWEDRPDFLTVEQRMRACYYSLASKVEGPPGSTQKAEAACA
As to conditions: ZAP70; 1 μM; read-out: % control.

In test [4] the target is T4, panel of 468 kinases (Homo sapiens, UniProt O75914).
T4 construct: purchased KINOMEscan (ScanMAX) service
As to conditions: PAK3; 1 μM; read-out: % control.

Test [5] concerns the target T5, panel of 468 kinases (Homo sapiens, UniProt P42338).
T5 construct: purchased KINOMEscan (ScanMAX) service
As to conditions: PIK3CB; 1 μM; read-out: % control.

In test [6] the target is T6, panel of 468 kinases (Homo sapiens, UniProt P36894).
T6 construct: purchased KINOMEscan (ScanMAX) service
As to conditions: BMPR1A; 1 μM; read-out: % control.

For test [7], the target named is T7, panel of 468 kinases (Homo sapiens, UniProt P45984).
T7 construct: purchased KINOMEscan (ScanMAX) service
As to conditions: JNK2; 1 μM; read-out: % control.

The target of test [8] is T8, panel of 468 kinases (Homo sapiens, UniProt Q8N5S9).
T8 construct: purchased KINOMEscan (ScanMAX) service
As to conditions: CAMKK1; 1 μM; read-out: % control.

Test [9] concerns the target T9, panel of 468 kinases (Homo sapiens, UniProt Q04771).
T9 construct: purchased KINOMEscan (ScanMAX) service
T9 sequence (Q04771 21-509): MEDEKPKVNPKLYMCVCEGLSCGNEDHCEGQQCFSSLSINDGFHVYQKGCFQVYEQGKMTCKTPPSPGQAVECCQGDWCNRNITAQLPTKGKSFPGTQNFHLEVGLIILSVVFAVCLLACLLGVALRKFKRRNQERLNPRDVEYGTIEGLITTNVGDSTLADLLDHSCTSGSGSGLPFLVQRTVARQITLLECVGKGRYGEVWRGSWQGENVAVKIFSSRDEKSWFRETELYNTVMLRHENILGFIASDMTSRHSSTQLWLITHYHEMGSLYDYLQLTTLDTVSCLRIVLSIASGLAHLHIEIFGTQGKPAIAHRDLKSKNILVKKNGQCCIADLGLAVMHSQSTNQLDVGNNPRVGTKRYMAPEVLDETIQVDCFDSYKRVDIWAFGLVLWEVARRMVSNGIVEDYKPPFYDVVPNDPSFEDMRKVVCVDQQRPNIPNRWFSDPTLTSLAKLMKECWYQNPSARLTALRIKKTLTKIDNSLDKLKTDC
As to conditions: ACVR1; 1 μM; read-out: % control.

In test [10] the target is T10, panel of 468 kinases (Homo sapiens, UniProt Q9BYP7).
T10 construct: purchased KINOMEscan (ScanMAX) service
As to conditions: WNK3; 1 μM; read-out: % control.

In test [11] the target is T11, panel of 468 kinases (Homo sapiens, UniProt Q16816).
T11 construct: purchased KINOMEscan (ScanMAX) service
As to conditions: PHKG1; 1 μM; read-out: % control.

The target in test [12] is T12, panel of 468 kinases (Homo sapiens, UniProt Q8IVW4).
T12 construct: purchased KINOMEscan (ScanMAX) service
As to conditions: CDKL3; 1 μM; read-out: % control.

Test [13] deals with T13, panel of 468 kinases (Homo sapiens, UniProt Q07912).
T13 construct: purchased KINOMEscan (ScanMAX) service
As to conditions: TNK2; 1 μM; read-out: % control.

Test [14] has as its target T14, panel of 468 kinases (Homo sapiens, UniProt Q16620).
T14 construct: purchased KINOMEscan (ScanMAX) service
As to conditions: TRKB; 1 μM; read-out: % control.

Test [15] has as its target T15, panel of 468 kinases (Homo sapiens, UniProt Q7KZI7).
T15 construct: purchased KINOMEscan (ScanMAX) service
As to conditions: MARK2; 1 μM; read-out: % control.

T5 sequence (P42338 whole entry): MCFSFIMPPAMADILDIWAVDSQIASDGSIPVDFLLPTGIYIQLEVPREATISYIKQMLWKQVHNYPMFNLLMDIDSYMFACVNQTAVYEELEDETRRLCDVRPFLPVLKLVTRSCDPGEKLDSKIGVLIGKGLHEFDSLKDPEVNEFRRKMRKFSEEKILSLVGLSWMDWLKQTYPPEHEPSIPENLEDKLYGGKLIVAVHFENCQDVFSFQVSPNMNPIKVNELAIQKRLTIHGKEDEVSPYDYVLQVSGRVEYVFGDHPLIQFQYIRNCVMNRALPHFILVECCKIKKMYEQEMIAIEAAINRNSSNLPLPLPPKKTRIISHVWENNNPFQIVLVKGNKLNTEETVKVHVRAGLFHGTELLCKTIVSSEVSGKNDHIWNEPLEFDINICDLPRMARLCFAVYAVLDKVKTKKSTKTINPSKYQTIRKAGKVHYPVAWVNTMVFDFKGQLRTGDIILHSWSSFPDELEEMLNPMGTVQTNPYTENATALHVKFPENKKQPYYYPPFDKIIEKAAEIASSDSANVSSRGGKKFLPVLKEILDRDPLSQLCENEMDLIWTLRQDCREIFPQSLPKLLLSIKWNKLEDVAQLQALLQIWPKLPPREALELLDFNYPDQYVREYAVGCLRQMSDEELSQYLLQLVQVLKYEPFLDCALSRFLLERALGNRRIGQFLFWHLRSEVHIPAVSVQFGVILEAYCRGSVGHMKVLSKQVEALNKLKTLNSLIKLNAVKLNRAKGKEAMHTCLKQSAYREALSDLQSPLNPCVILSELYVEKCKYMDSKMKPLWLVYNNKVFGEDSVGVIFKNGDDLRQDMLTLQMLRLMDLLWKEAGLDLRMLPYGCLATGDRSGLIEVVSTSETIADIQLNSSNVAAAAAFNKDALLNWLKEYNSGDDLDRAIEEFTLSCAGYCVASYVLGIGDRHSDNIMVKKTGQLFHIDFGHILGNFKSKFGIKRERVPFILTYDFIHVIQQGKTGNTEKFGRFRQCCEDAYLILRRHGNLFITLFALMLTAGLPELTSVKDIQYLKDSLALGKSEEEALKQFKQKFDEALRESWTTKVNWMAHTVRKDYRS
T2 sequence (Q9UKE5 whole entry): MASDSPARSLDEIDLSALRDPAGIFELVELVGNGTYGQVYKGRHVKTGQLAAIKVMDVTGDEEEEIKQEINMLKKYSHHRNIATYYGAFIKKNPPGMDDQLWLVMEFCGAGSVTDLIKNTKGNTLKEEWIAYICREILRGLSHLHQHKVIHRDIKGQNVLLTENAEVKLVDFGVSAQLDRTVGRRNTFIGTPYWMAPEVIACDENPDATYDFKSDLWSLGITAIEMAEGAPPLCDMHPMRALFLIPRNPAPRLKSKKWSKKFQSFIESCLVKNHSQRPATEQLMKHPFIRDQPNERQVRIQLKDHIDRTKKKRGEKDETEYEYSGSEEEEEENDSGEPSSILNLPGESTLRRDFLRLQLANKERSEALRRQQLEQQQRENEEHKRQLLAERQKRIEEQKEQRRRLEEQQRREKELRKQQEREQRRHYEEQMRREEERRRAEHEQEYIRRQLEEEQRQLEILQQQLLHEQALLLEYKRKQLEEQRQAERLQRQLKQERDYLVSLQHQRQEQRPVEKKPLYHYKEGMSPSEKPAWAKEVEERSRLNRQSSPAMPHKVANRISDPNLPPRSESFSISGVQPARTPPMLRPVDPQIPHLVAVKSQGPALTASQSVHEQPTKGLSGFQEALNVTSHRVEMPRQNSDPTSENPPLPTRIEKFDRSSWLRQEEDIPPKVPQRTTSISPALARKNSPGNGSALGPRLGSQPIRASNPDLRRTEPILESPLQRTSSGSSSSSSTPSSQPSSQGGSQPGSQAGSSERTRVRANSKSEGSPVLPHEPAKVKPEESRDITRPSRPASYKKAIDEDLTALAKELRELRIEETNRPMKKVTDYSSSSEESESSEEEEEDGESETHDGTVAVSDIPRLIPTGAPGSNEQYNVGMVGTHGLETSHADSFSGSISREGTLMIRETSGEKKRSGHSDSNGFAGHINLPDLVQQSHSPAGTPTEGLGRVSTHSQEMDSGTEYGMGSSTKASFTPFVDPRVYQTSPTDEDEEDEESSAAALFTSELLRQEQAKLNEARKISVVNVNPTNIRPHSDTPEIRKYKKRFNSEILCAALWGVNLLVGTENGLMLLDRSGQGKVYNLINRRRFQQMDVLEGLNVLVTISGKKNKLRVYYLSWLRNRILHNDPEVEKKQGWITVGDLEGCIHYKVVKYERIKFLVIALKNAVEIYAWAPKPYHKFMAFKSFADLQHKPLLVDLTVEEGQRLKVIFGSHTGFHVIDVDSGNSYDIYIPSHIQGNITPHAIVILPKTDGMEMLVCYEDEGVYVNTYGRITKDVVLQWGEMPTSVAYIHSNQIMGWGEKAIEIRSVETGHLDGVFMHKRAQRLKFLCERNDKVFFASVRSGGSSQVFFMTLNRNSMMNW
T1 sequence (P36507 whole entry): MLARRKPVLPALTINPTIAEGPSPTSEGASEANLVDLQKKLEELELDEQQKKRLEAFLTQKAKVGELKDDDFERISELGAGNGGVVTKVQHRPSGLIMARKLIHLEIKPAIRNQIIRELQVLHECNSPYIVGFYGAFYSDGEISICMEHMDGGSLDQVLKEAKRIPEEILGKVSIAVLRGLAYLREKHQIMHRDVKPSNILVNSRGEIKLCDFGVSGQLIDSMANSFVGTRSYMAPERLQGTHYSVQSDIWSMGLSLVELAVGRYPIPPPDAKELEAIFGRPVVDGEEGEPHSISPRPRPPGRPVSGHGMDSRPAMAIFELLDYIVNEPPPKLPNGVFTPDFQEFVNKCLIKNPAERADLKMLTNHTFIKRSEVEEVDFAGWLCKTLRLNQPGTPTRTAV
T6 sequence (P36894 24-532): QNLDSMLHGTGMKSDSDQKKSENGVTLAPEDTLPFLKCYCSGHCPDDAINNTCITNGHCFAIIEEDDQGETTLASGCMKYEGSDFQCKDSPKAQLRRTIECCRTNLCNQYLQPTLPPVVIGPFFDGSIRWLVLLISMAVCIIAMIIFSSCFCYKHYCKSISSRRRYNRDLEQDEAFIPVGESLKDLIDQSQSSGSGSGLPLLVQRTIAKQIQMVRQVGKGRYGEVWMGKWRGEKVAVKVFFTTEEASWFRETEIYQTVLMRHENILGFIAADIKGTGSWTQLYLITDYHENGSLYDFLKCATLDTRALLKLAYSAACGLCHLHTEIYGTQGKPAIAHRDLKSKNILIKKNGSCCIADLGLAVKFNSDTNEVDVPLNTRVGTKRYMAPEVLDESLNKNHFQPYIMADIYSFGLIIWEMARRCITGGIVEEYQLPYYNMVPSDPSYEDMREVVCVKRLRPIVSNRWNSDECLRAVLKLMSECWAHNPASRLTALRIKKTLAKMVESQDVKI
T4 sequence (O75914 whole entry): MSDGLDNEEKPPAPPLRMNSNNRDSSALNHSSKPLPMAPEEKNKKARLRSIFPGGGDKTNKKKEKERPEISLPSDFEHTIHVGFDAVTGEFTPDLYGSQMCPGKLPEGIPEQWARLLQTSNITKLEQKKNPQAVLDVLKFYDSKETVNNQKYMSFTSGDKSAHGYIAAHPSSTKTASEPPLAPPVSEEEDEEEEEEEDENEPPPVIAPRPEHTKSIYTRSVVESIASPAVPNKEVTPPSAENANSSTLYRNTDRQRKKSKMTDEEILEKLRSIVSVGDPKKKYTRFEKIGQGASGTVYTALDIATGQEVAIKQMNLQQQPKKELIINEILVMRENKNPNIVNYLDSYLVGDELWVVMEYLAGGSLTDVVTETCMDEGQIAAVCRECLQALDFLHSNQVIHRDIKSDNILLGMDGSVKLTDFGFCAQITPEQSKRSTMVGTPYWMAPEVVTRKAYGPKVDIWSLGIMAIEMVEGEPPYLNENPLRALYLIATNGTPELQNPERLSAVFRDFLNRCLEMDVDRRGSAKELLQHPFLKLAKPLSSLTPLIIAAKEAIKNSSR
T7 sequence (P45984 whole entry): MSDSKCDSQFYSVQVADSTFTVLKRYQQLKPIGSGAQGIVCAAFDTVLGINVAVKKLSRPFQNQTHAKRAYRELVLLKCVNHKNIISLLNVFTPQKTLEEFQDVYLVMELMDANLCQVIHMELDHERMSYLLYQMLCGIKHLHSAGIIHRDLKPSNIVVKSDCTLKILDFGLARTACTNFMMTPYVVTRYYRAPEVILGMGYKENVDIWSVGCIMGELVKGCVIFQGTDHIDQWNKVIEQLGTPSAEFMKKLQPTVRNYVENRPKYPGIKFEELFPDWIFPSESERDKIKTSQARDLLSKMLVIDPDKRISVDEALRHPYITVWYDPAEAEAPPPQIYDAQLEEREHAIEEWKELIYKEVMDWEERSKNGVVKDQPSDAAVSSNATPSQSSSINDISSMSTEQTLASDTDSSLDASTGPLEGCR
T12 sequence (Q8IVW4 whole entry): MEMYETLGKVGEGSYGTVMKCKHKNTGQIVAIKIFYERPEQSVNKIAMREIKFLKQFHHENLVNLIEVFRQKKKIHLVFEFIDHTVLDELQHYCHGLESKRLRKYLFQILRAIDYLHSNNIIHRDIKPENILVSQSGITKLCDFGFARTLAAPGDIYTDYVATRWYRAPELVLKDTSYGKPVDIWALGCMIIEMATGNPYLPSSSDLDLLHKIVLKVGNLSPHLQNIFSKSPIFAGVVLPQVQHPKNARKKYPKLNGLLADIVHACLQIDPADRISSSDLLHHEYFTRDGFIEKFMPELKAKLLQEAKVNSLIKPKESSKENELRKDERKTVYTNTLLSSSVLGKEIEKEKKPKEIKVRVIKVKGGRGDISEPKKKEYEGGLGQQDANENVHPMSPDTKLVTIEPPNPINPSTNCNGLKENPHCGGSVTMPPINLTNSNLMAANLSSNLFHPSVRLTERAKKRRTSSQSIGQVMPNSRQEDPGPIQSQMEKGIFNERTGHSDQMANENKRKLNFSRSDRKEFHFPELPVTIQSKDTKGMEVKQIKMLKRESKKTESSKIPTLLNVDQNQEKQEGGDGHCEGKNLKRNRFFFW

In the case of `CNc1nc(Nc2ccc(S(=O)(=O)N3CCC(N4CCOCC4)CC3)cc2OC)nc2[nH]cc(Cl)c12` [Compound 12, 5-chloro-N2-(2-methoxy-4-((4-morpholinopiperidin-1-yl)sulfonyl)phenyl)-N4-methyl-7H-pyrrolo[2,3-d]pyrimidine-2,4-diamine], the remaining binding at 1 µM on panel of 468 kinases [1] was 78%; on panel of 468 kinases [2], 92%; on panel of 468 kinases [3], 65%; on panel of 468 kinases [4], 100%; on panel of 468 kinases [5], 80%; on panel of 468 kinases [6], 96%. The remaining binding at 1 µM on panel of 468 kinases [7] turned out to be 26%; at panel of 468 kinases [8] it was 100%; at panel of 468 kinases [9] it was 100%; on panel of 468 kinases [10], 100%; on panel of 468 kinases [11], 25%; on panel of 468 kinases [12] it was 100%. Moreover, the remaining binding at 1 µM on panel of 468 kinases [13], at panel of 468 kinases [14] and at panel of 468 kinases [15] was 100% each time.

For the molecule `CNc1nc(Nc2ccc(C(=O)N3CCC(N4CCOCC4)CC3)c3c2OCO3)nc2[nH]cc(Cl)c12` [Compound 75, (7-((5-chloro-4-(methylamino)-7H-pyrrolo[2,3-d]pyrimidin-2-yl)amino)benzo[d][1,3]dioxol-4-yl)(4-morpholinopiperidin-1-yl)methanone], the remaining binding at 1 µM on panel of 468 kinases [1] was 76%; at panel of 468 kinases [2], 39%; on panel of 468 kinases [3] it was 22%; on panel of 468 kinases [4], 97%; at panel of 468 kinases [5], 89%; at panel of 468 kinases [6], 85%. For the same molecule, the remaining binding at 1 µM came out at 0% on panel of 468 kinases [7]; 95% at panel of 468 kinases [8]; 100% at panel of 468 kinases [9]; 93% at panel of 468 kinases [10]; 14% at panel of 468 kinases [11]; 100% at panel of 468 kinases [12]. Further, the remaining binding at 1 µM at panel of 468 kinases [13], on panel of 468 kinases [14] and on panel of 468 kinases [15] was 100% each time.

`CNc1nc(Nc2ccc(P3(=O)CCN(C4CCOCC4)CC3)cc2OC)nc2[nH]cc(Cl)c12` [Compound 77, 4-(4-((5-chloro-4-(methylamino)-7H-pyrrolo[2,3-d]pyrimidin-2-yl)amino)-3-methoxyphenyl)-1-(tetrahydro-2H-pyran-4-yl)-1,4-azaphosphinane 4-oxide]: the remaining binding at 1 µM at panel of 468 kinases [1] came out at 78%; at panel of 468 kinases [2], 72%; on panel of 468 kinases [3], 37%; at panel of 468 kinases [4], 91%; on panel of 468 kinases [5], 71%; on panel of 468 kinases [6], 96%. For the same molecule, the remaining binding at 1 µM on panel of 468 kinases [7] was determined as 7.5%; at panel of 468 kinases [8], 83%; at panel of 468 kinases [9], 100%; on panel of 468 kinases [10], 98%; at panel of 468 kinases [11], 8.4%; on panel of 468 kinases [12], 100%. Moreover, the values for the remaining binding at 1 µM at panel of 468 kinases [13], at panel of 468 kinases [14] and on panel of 468 kinases [15] were 81%, 100% and 100%, respectively.
